Experimental data taken from PMC5590646 (Biochemistry, 2015).
Read-outs that look alike come from different tables or passages of the source. Marks after values point to notes of the source that are not given here.

Columns and labels:
[1] = target: PR (pseudo-wild-type mature HIV-1 protease); details: cited from earlier work
TFR-PR precursor = details: cited from earlier work; for IC50: read-out: IC50 for inhibition of autoprocessing
TFR-PR20 precursor = details: read-out: IC50 for inhibition of autoprocessing; cited from earlier work
PR20 [2] = experiment: DSC thermal stabilisation by inhibitor; type: binding, HIV-1; details: for ΔTm of PR20 smaller than that of PR20^PR-123: DSC, PR20 vs PR20^PR-123
PR20 [3] = details: read-out: inhibition constant Ki; cited from earlier work
PR = details: cited from earlier work
PR20 [4] = details: darunavir; cited from earlier work

SMILES | Ki ([1]; read-out: inhibition constant Ki, saquinavir) [nM] | concentration that completely inhibits autoprocessing (TFR-PR precursor) [µM] | IC50 (TFR-PR precursor) [nM] | IC50 (TFR-PR20 precursor) [nM] | ΔTm of PR20 smaller than that of PR20^PR-123 (PR20 [2]) | ΔTm (with inhibitor), DSC (PR20 [2]; PR20, saquinavir, 2fold molar excess of inhibitor over dimer, buffer A) [°C] | Ki (PR20 [3]) [nM] | ΔTm (with inhibitor), DSC (PR; saquinavir) | Ki ([1]; read-out: inhibition constant Ki, darunavir, ref refs and [50]) [nM] | ΔTm (with inhibitor), DSC (PR20 [4]) | ΔTm (with inhibitor), DSC (PR; darunavir)
CC(C)(C)NC(=O)[C@@H]1C[C@@H]2CCCC[C@@H]2CN1C[C@@H](O)[C@H](Cc1ccccc1)NC(=O)[C@H](CC(N)=O)NC(=O)c1ccc2ccccc2n1 [saquinavir] | 0.28 ± 0.02 | 1 to 3 | 1000 to 2000 | > 150000 | 9–11 °C | 2.9 | 930 ± 93 | 19.3 ^d °C | – | – | –
CC(C)CN(C[C@@H](O)[C@H](Cc1ccccc1)NC(=O)O[C@H]1CO[C@H]2OCC[C@H]21)S(=O)(=O)c1ccc(N)cc1 [darunavir] | – | 1 to 3 | 1000 to 2000 | – | 9–11 °C | – | 41 ± 10 | – | ≤ 0.01 | 5.3 ^b °C | 22.4 ^c °C
